Here are results for 26 compounds from patent US20130029962A1, “Substituted Heteroaromatic Pyrazole-Containing Carboxamide and Urea Compounds as Vanilloid Receptor Ligands” (Gruenenthal GmbH, priority 2011, published 2013).

In this test the target is T1, vanilloid receptor 1 (VR1/TRPV1 receptor) (Homo sapiens, UniProt Q8NER1).
T1 construct: expressed in transfected cells; host or cells: CHO K1
The test is described as follows: Functional testing on the vanilloid receptor 1 (VR1/TRPV1): FLIPR Ca2+ influx assay, displacement of capsaicin. The following applies: for inhibition at 5 µM: 5 μM compound, read-out: inhibition (as a percentage) at the concentration after @, Cap; for inhibition at 5 µM / mode of action at VR1/TRPV1 (AG, pAG, NE), Cap: capsaicin (Cap), human being; for Ki: capsaicin (Cap) as stimulus, Ki from IC50 by Cheng-Prusoff, read-out: (f) Ki (human being) [nM] Cap. Also noted: key to mode of action at VR1/TRPV1 (AG, pAG, NE), Cap: AG=agonist; NE=no effect; pAG=partial agonist. Type of test: cell-based, human being. The protocol:
Furthermore, preference may be given to compounds according to the invention that cause a 50 percent displacement of capsaicin, which is present at a concentration of 100 nM, in a FLIPR assay with CHO K1 cells which were transfected with the human VR1 gene at a concentration of less than 2,000 nM, preferably less than 1,000 nM, particularly preferably less than 300 nM, most particularly preferably less than 100 nM, even more preferably less than 75 nM, additionally preferably less than 50 nM, most preferably less than 10 nM.
In the process, the Ca^2+ influx is quantified in the FLIPR assay with the aid of a Ca^2+-sensitive dye (type Fluo-4, Molecular Probes Europe BV, Leiden, the Netherlands) in a fluorescent imaging plate reader (FLIPR, Molecular Devices, Sunnyvale, USA), as described hereinafter. […]
The number of cells in the suspension is set to 3×10^5 per mL and 150 μL of this suspension are in each case introduced into a recess in the cell culture plates coated as described hereinbefore. In the incubator the plates are left for two to three days at 37° C., 5% by volume of CO2 and 95% relative humidity. Subsequently, the cells are loaded with 2 μM of Fluo-4 and 0.01% by volume of Pluronic F127 (Molecular Probes Europe BV, Leiden, the Netherlands) in HBSS buffer (Hank's buffered saline solution, Gibco Invitrogen GmbH, Karlsruhe, Germany) for 30 min at 37° C., washed 3 times with HBSS buffer and after further incubation for 15 minutes at room temperature used for Ca^2+ measurement in a FLIPR assay. The Ca^2+-dependent fluorescence is in this case measured before and after the addition of substances (λex=488 nm, λem=540 nm). Quantification is carried out by measuring the highest fluorescence intensity (FC, fluorescence counts) over time.
The FLIPR protocol consists of 2 substance additions. First the compounds to be tested (10 μM) are pipetted onto the cells and the Ca^2+ influx is compared with the control (capsaicin 10 μM). This provides the result in % activation based on the Ca^2+ signal after the addition of 10 μM of capsaicin (CP). After 5 minutes' incubation, 100 nM of capsaicin are applied and the Ca^2+ influx is also determined. Desensitising agonists and antagonists lead to suppression of the Ca^2+ influx. The % inhibition is calculated compared to the maximum achievable inhibition with 10 μM of capsazepine. Triple analyses (n=3) are carried out and repeated in at least 3 independent experiments (N=4).
Starting from the percentage displacement caused by different concentrations of the compounds to be tested of general formula I, IC50 inhibitory concentrations which cause a 50-percent displacement of capsaicin were calculated. Ki values for the test substances were obtained by conversion by means of the Cheng-Prusoff equation (Cheng, Prusoff; Biochem. Pharmacol. 22, 3099-3108, 1973).
The affinity of the compounds according to the invention for the vanilloid receptor 1 (VR1/TRPV1 receptor) was determined as described above (pharmacological method I).

T1 sequence (Q8NER1 whole entry): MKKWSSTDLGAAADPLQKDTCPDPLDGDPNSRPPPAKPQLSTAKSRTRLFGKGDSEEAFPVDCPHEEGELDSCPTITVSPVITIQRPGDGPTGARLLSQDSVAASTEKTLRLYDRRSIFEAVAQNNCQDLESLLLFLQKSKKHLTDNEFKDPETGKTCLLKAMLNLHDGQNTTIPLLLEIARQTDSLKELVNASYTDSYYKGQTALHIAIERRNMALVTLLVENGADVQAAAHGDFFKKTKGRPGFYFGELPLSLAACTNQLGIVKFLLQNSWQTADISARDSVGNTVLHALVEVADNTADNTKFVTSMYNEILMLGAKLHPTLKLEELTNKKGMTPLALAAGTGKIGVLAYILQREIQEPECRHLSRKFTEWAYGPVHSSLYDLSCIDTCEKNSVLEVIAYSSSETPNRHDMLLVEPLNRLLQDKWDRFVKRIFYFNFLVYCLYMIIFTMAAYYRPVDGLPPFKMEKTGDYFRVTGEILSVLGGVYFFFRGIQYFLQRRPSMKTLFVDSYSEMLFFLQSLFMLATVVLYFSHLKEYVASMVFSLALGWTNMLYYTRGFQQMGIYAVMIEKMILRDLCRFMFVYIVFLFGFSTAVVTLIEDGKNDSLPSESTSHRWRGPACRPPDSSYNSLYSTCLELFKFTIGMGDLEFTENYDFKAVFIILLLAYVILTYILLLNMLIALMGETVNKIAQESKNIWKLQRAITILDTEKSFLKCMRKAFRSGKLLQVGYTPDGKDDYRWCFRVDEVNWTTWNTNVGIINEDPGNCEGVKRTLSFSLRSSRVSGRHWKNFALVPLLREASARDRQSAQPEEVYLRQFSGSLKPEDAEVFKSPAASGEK

`O=C(Cc1ccccn1)NCc1cc(C(F)(F)F)nn1-c1cccc(Cl)c1` [Example 1, N-((1-(3-chlorophenyl)-3-(trifluoromethyl)-1H-pyrazol-5-yl)methyl)-2-(pyridin-2-yl)acetamide]: the inhibition at 5 µM stood at 31%.
Turning to `CC(C(=O)NCc1cc(C(C)(C)C)nn1-c1cccc(Cl)c1)c1ccccn1` (centres unmarked) [Example 2, N-((3-tert-butyl-1-(3-chlorophenyl)-1H-pyrazol-5-yl)methyl)-2-(pyridin-2-yl)propanamide], the inhibition at 5 µM was 89% and the “mode of action at VR1/TRPV1 (AG, pAG, NE), Cap” value (“mode of action at VR1/TRPV1” for short) is reported as “AG”.
As for `CC(C(=O)NCc1cc(C(F)(F)F)nn1-c1cccc(Cl)c1)c1ccccn1` (centres unmarked) [Example 3, N-((1-(3-chlorophenyl)-3-(trifluoromethyl)-1H-pyrazol-5-yl)methyl)-2-(pyridin-2-yl)propanamide], the inhibition at 5 µM was determined as 35%.
A word on the Ki: it is the dissociation constant of the complex between target and ligand, obtained from inhibition or displacement. Consider `CC(C)(C)c1cc(CNC(=O)Nc2ccccn2)n(-c2cccc(Cl)c2)n1` [Example 4, 1-((3-tert-butyl-1-(3-chlorophenyl)-1H-pyrazol-5-yl)methyl)-3-(pyridin-2-yl)urea], for which the inhibition constant Ki amounted to 47 nM.
For the compound `O=C(NCc1cc(C(F)(F)F)nn1-c1cccc(Cl)c1)Nc1ccccn1` [Example 5, 1-((1-(3-chlorophenyl)-3-(trifluoromethyl)-1H-pyrazol-5-yl)methyl)-3-(pyridin-2-yl)urea], the inhibition at 5 µM was 29%.
Consider `CC(C)(C)c1cc(CNC(=O)Cc2cccnc2)n(-c2cccc(Cl)c2)n1` [Example 6, N-((3-tert-butyl-1-(3-chlorophenyl)-1H-pyrazol-5-yl)methyl)-2-(pyridin-3-yl)acetamide], for which the inhibition at 5 µM was 89% and the “mode of action at VR1/TRPV1” value is recorded as “AG”.
Take `O=C(Cc1cccnc1)NCc1cc(C(F)(F)F)nn1-c1cccc(Cl)c1` [Example 7, N-((1-(3-chlorophenyl)-3-(trifluoromethyl)-1H-pyrazol-5-yl)methyl)-2-(pyridin-3-yl)acetamide]: the inhibition at 5 µM is 51%.
As for `CC(C(=O)NCc1cc(C(F)(F)F)nn1-c1cccc(Cl)c1)c1cccnc1` (centres unmarked) [Example 8, N-((1-(3-chlorophenyl)-3-(trifluoromethyl)-1H-pyrazol-5-yl)methyl)-2-(pyridin-3-yl)propanamide], the Ki amounted to 13 nM.
Regarding `O=C(NCc1cc(C(F)(F)F)nn1-c1cccc(Cl)c1)Nc1cccnc1` [Example 9, 1-((1-(3-chlorophenyl)-3-(trifluoromethyl)-1H-pyrazol-5-yl)methyl)-3-(pyridin-3-yl)urea], the inhibition at 5 µM was 72% and the “mode of action at VR1/TRPV1” value is on record as “AG”.
In the case of `CC(C)(C)c1cc(CNC(=O)Cc2ccncc2)n(-c2cccc(Cl)c2)n1` [Example 10, N-((3-tert-butyl-1-(3-chlorophenyl)-1H-pyrazol-5-yl)methyl)-2-(pyridin-4-yl)acetamide], the inhibition at 5 µM came out at 90% and the “mode of action at VR1/TRPV1” value is “AG”.
Consider `O=C(Cc1ccncc1)NCc1cc(C(F)(F)F)nn1-c1cccc(Cl)c1` [Example 11, N-((1-(3-chlorophenyl)-3-(trifluoromethyl)-1H-pyrazol-5-yl)methyl)-2-(pyridin-4-yl)acetamide], for which the inhibition at 5 µM was 79% and the “mode of action at VR1/TRPV1” value is given as “AG”.
Consider `O=C(NCc1cc(C(F)(F)F)nn1-c1cccc(Cl)c1)Nc1ccncc1` [Example 12, 1-((1-(3-chlorophenyl)-3-(trifluoromethyl)-1H-pyrazol-5-yl)methyl)-3-(pyridin-4-yl)urea], for which the inhibition at 5 µM came to 85% and the “mode of action at VR1/TRPV1” value was “AG”.
For `O=C(Cc1ccncn1)NCc1cc(C(F)(F)F)nn1-c1cccc(Cl)c1` [Example 13, N-((1-(3-chlorophenyl)-3-(trifluoromethyl)-1H-pyrazol-5-yl)methyl)-2-(pyrimidin-4-yl)acetamide], the inhibition at 5 µM turned out to be 30%.
`CC(C)(C)c1cc(CNC(=O)Cc2cnccn2)n(-c2cccc(Cl)c2)n1` [Example 14, 1N-((3-tert-butyl-1-(3-chlorophenyl)-1H-pyrazol-5-yl)methyl)-2-(pyrazin-2-yl)acetamide]: the “mode of action at VR1/TRPV1” value is reported as “pAG”.
`O=C(NCc1cc(C(F)(F)F)nn1-c1cccc(Cl)c1)Nc1ccnnc1` [Example 15, 1-((1-(3-chlorophenyl)-3-(trifluoromethyl)-1H-pyrazol-5-yl)methyl)-3-(pyridazin-4-yl)urea]: the “mode of action at VR1/TRPV1” value was “AG”.
With `O=C(Cc1cncnc1)NCc1cc(C(F)(F)F)nn1-c1cccc(Cl)c1` [Example 16, N-((1-(3-chlorophenyl)-3-(trifluoromethyl)-1H-pyrazol-5-yl)methyl)-2-(pyrimidin-5-yl)acetamide], the Ki is 77 nM.
`O=C(Cc1ccc(Cl)nc1)NCc1cc(C(F)(F)F)nn1-c1cccc(Cl)c1` [Example 17, N-((1-(3-chlorophenyl)-3-(trifluoromethyl)-1H-pyrazol-5-yl)methyl)-2-(6-chloropyridin-3-yl)acetamide]: the Ki turned out to be 29 nM.
With `O=C(NCc1cc(C(F)(F)F)nn1-c1cccc(Cl)c1)Nc1cncc(F)c1` [Example 18, 1-((1-(3-chlorophenyl)-3-(trifluoromethyl)-1H-pyrazol-5-yl)methyl)-3-(5-fluoropyridin-3-yl)urea], the Ki is 39 nM.
In the case of `Cc1ncc(NC(=O)NCc2cc(C(F)(F)F)nn2-c2cccc(Cl)c2)cn1` [Example 19, 1-((1-(3-chlorophenyl)-3-(trifluoromethyl)-1H-pyrazol-5-yl)methyl)-3-(2-methylpyrimidin-5-yl)urea], the inhibition at 5 µM came out at 45%.
For the compound `CS(=O)(=O)CCc1ccc(NC(=O)NCc2cc(C(F)(F)F)nn2-c2cccc(Cl)c2)cn1` [Example 21, 1-((1-(3-chlorophenyl)-3-(trifluoromethyl)-1H-pyrazol-5-yl)methyl)-3-(6-(2-(methylsulfonyl)ethyl)pyridin-3-yl)urea], the Ki worked out at 43 nM.
Turning to `CC(C)(C)c1cc(CNC(=O)Nc2cnc(CCS(C)(=O)=O)c(F)c2)n(-c2cccc(Cl)c2)n1` [Example 22, 1-((3-tert-butyl-1-(3-chlorophenyl)-1H-pyrazol-5-yl)methyl)-3-(5-fluoro-6-(2-(methylsulfonyl)ethyl)pyridin-3-yl)urea], the Ki was 28 nM.
The same measure, in the same setting: the value for `CS(=O)(=O)CCc1ncc(NC(=O)NCc2cc(C(F)(F)F)nn2-c2cccc(Cl)c2)cc1F` [Example 23, 1-((1-(3-chlorophenyl)-3-(trifluoromethyl)-1H-pyrazol-5-yl)methyl)-3-(5-fluoro-6-(2-(methylsulfonyl)ethyl)pyridin-3-yl)urea] was 29 nM; that for `CS(=O)(=O)CCc1ncc(NC(=O)NCc2cc(C3CC3)nn2-c2cccc(Cl)c2)cc1F` [Example 24, 1-((1-(3-chlorophenyl)-3-cyclopropyl-1H-pyrazol-5-yl)methyl)-3-(5-fluoro-6-(2-(methylsulfonyl)ethyl)pyridin-3-yl)urea] was 46 nM.
Regarding `CC(C)(C)c1cc(CNC(=O)Nc2ccc(C(N)=O)nc2)n(-c2cccc(Cl)c2)n1` [Example 25, 5-(3-((3-tert-butyl-1-(3-chlorophenyl)-1H-pyrazol-5-yl)methyl)ureido)picolinamide], the Ki was 31 nM.
Consider `NC(=O)c1ccc(NC(=O)NCc2cc(C(F)(F)F)nn2-c2cccc(Cl)c2)cn1` [Example 26, 5-(3-((1-(3-chlorophenyl)-3-(trifluoromethyl)-1H-pyrazol-5-yl)methyl)ureido)picolinamide], for which the inhibition at 5 µM worked out at 44%.
Regarding `CC(C(=O)NCc1cc(C(F)(F)F)nn1-c1cccc(Cl)c1)c1ccc(CNS(C)(=O)=O)nc1` (centres unmarked) [Example 27, N-((1-(3-chlorophenyl)-3-(trifluoromethyl)-1H-pyrazol-5-yl)methyl)-2-(6-(methylsulfonamidomethyl)pyridin-3-yl)propanamide], the Ki stood at 61 nM.
